Where two headings read alike, the source gives them in different places.

We go through 1 compound from patent US9187413B2, “Peripherally restricted FAAH inhibitors” (The Regents of the University of California, priority 2010, dated 2015).

One series deals with sciatic nerve ligation. The series is described as follows: Sciatic nerve ligation pain behavior. The settings on record: mice. It counts as in vivo. The text has this:
Surgery. We performed sciatic nerve ligations in male Swiss mice, as previously described for rats^24 with minor modifications^39.
Behavioral tests. We measured nocifensive responses elicited by i.p. injection of acetic acid in male Swiss and C57B1/6 (wild-type or FAAH-deficient) mice^40, intraplantar injection of carrageenan in male Swiss mice^20, intraplantar injection of formalin in male Sprague-Dawley rats^41, and sciatic nerve ligation in male Swiss mice^39.
Surgeries All surgeries were conducted under aseptical conditions. Implantation of cannulae for intracerebroventricular (i.c.v.) drug administration. SD rats were anesthesized using a mixture of ketamine (70 mg-kg^−1, i.p.) and xylazine (9.33 mg-kg^−1, i.p.). They were placed in a stereotaxic frame and stabilized by ear bars (David Kopf Instruments, Tujunga, Calif., USA) with the incisor bar set 2.4 mm below the horizontal plane. A 22-gauge stainless-steel guide cannula was implanted into the right lateral cerebral ventricle 7 days prior to experiments. Coordinates for implantation (−0.9 mm antero/posterior and −1.5 mm medio/lateral relative to bregma, and 3.8 mm below the surface of the skull) were determined using the Paxinos and Watson rat brain atlas^45. Guide cannulae were anchored to the skull with 3 stainless-steel screws and dental cement, and were kept patent until injection by insertion of a dummy stylet. […]
Behavioral tests Acetic acid-induced writhing was measured in Swiss mice or C57B1/6 mice (wild-type and FAAH-deficient), as described^40 with minor modifications. […] Abdominal stretches (extension of body and hind limbs) were counted for 20 min, starting 5 min after acetic acid injection. […] Behavior was scored by an observer blinded to the treatment conditions. Formalin-induced nociception was assessed in Sprague-Dawley rats, as described^41. […]

Series [1] can be described thus: Drug distribution coefficient n-octanol/buffer pH 7.4. It counts as physicochemical. The settings on record: n-octanol / aqueous buffer pH 7.4, 25±1° C., mean±sem, n=3; read-out: distribution coefficient, Log Doct,pH7.4. How it is done:
Drug distribution coefficients. We determined Log D7.4,oct values at room temperature (25±1° C.) partitioning the solutes between n-octanol and an aqueous solution buffered at pH 7.4^36.

A further series addresses FAAH (Mus musculus (Mouse), UniProt O08914). The series is described as follows: Tissue levels of anandamide, PEA and 2-AG by LC/MS. The settings on record: mice, 1 mg-kg^-1, i.p. It counts as in vivo.
Series [2] in a line: Drug transport assay through polarized TC7 monolayers. It counts as in vitro ADME. The settings on record: human. How it is done: (§1) Drug transport assays. Assays were performed at Cerep Inc. (Redmond, Wash.), following protocols outlined in the company's web-site (http://www.cerep.fr).
(§2) Drug transport assays Transport assays were conducted at Cerep Inc. (Redmond, Wash.). Cellular permeability was determined in the apical (A) to basal (B) and the B to A direction in the presence of 10 μM compound in Hanks' buffered salt solution containing 1% dimethylsulfoxide (DMSO). Efflux ratios were calculated as the ratio of B-A to A-B permeabilities.

The subject of a further series is Pgp. The description is as above. It counts as in vitro ADME. The settings on record: human, Caco-2, with verapamil (100 μM); TC7 monolayers, Pgp inhibitor verapamil (100 μM); read-out: B-A permeability with verapamil. As to the method:
as §1, §2
On the technique in general: Caco-2 monolayers are a common model of the intestinal barrier.

Setting [3] is: single dose 1 mg-kg^-1, i.p., 2 h before testing, one week after surgery, operated paws.

Chain of FAAH (O08914 whole entry): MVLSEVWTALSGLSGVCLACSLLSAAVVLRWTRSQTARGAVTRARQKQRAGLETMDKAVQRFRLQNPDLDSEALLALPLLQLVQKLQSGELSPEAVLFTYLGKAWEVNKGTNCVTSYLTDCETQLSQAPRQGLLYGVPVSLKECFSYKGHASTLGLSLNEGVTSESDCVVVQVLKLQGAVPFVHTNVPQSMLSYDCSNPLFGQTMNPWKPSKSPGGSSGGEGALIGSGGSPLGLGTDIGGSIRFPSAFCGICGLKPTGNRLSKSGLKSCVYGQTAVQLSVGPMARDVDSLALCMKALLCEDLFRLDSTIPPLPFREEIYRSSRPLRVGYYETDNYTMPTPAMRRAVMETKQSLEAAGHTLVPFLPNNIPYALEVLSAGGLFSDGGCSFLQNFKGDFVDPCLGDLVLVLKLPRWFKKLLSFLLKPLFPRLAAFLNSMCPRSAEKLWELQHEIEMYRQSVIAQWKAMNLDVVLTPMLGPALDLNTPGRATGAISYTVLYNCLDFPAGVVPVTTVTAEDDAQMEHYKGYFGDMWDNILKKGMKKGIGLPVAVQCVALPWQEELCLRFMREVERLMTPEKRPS
Experimental for FAAH: Tissue analyses. We performed tissue extractions and liquid chromatography/mass spectrometry analyses of endocannabinoids as described^38.
Tissue extractions Mice were sacrificed with isoflurane and tissues were collected and immediately frozen in liquid nitrogen. Frozen tissues were weighed and homogenized in methanol (1 mL) containing [^2H4]-anandamide, [^2H4]-PEA, [^2H8]-2-AG, and N-cyclohexyl biphenyl-3-ylacetamide as internal standards. Analytes were extracted with chloroform (2 vol) and washed with water (1 vol). Organic phases were collected and dried under nitrogen. […] For other analyses the organic extract was fractionated by open-bed silica gel column chromatography, as described^43. Briefly, the extract was dissolved in chloroform and loaded onto small glass columns packed with Silica Gel G (60˜A 230-400 Mesh ASTM; Whatman, Clifton, N.J.). Anandamide, PEA and 2-AG were eluted with chloroform/methanol (9:1, vol/vol).
Mobile phase A consisted of methanol containing 0.25% acetic acid, 5 mM ammonium acetate; mobile phase B consisted of water containing 0.25% acetic acid, 5 mM ammonium acetate. […] Column temperature was kept at 40° C. […] Limit of quantification was 0.4 pmol.

For `NC(=O)c1cccc(-c2cc(OC(=O)NC3CCCCC3)ccc2O)c1` [Compound 1b, cyclohexylcarbamic acid 3′-carbamoyl-6-hydroxybiphenyl-3-yl ester], the “antinociceptive effect of repeated injections after sciatic nerve ligation” value in the series on sciatic nerve ligation (1 mg-kg^-1, i.p., once daily for 4 days, starting 3 days after ligation) is listed as “undistinguishable from that caused by single drug dosing”. Further, the “mechanical hyperalgesia and mechanical allodynia after sciatic nerve ligation” value in the series on sciatic nerve ligation (setting [3]) is “suppressed mechanical hyperalgesia and mechanical allodynia”. Further, the “thermal hyperalgesia after sciatic nerve ligation” value in the series with sciatic nerve ligation (setting [3]) is recorded as “attenuated thermal hyperalgesia”. Besides, in series [1], the logD worked out at 3.03 ± 0.01. In addition, the anandamide levels result on FAAH is recorded as “increased anandamide levels in the periphery, not in forebrain or hypothalamus”. The “tissue levels of 2-AG in vivo” value on FAAH is given as “did not alter”. Also, the recovery at 10 μM amounted to 83% in series [2] (Caco-2, TC7 monolayers, 10 μM compound, read-out: % recovery A-B); 95% in series [2] (Caco-2, TC7 monolayers, 10 μM compound, read-out: % recovery B-A); 94% in series [2] (Caco-2, with verapamil 100 μM, TC7 monolayers, verapamil (100 μM), read-out: % recovery B-A with verapamil). The Papp A→B at 10 μM in series [2] (Caco-2, TC7 monolayers, 10 μM compound, mean of 2 independent experiments, read-out: permeability A-B) came out at 3.8 ×10⁻⁶ cm/s. In addition, the Papp B→A at 10 μM came to 37.1 ×10⁻⁶ cm/s in series [2] (Caco-2, TC7 monolayers, 10 μM compound, mean of 2 independent experiments, read-out: permeability B-A) and 32.2 ×10⁻⁶ cm/s in the series on Pgp.
